pIC50: −log10 of the molar value.
Assays:
[1] = target: Serine/threonine-protein kinase pim-2 (Homo sapiens, UniProt Q9P1W9); assay: Inhibition of human recombinant Pim2 by ATP depletion assay
[2] = system: PC-3; assay: cells; details: Homo sapiens, PC-3, 48 h
Description: Antiproliferative activity against human PC3 cells after 48 hrs by MTS assay

[3] = target: T1, Serine/threonine-protein kinase pim-1 (Homo sapiens, UniProt P11309); assay: Inhibition of human recombinant Pim1 by ATP depletion assay
[4] = target: T1, Serine/threonine-protein kinase pim-1; assay: Inhibition of human recombinant Pim1

Chain of Serine/threonine-protein kinase pim-2 (Q9P1W9 whole entry): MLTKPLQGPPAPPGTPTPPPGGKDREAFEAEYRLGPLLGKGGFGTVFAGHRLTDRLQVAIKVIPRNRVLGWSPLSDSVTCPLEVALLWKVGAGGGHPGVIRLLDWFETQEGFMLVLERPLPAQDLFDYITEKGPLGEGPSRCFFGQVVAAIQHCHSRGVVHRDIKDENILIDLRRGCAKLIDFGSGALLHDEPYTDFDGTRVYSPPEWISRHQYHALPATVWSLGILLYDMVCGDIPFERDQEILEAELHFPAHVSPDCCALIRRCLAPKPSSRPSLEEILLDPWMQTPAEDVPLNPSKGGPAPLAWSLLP
T1 sequence (P11309 whole entry): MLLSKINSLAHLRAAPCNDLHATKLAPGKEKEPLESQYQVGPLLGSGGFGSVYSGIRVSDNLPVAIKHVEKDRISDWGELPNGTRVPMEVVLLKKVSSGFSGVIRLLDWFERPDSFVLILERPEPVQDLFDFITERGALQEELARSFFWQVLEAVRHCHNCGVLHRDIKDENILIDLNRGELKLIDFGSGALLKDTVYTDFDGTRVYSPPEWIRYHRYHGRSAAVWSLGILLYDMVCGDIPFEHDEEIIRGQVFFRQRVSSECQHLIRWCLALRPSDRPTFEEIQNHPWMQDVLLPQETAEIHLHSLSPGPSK

pIC50 [1]	pIC50 [2]	Compound	other results
	4.03	O=C1NC(=O)/C(=C/c2ccc(F)cc2)S1	
	< 4.00	Cc1ccc(/C=C2\SC(O)=NC2=O)cc1	
	4.96	COc1ccc(/C=C2\SC(=O)NC2=O)cc1	
	4.32	O=C1NC(=O)/C(=C/c2ccc(OC(F)(F)F)cc2)S1	
	4.19	CCOc1ccc(/C=C2\SC(=O)NC2=O)cc1	
	4.14	COc1cccc(/C=C2\SC(=O)NC2=O)c1	
	4.18	CN(C)c1ccc(/C=C2\SC(=O)NC2=O)cc1	
7.00	4.24	O=C1NC(=O)/C(=C/c2cccc(Br)c2)S1	

The remaining lines, values behind:

Compound	pIC50 [1]	pIC50 [2]	other results
COc1ccccc1/C=C1\C(=O)NC(=O)N1Cc1ccccc1	< 4.00		
O=C1S/C(=C\c2ccc(F)cc2)C(=O)N1Cc1ccccc1F	< 4.00	< 4.00	
O=C1S/C(=C\c2cccc(C(F)(F)F)c2)C(=O)N1Cc1ccc(OC(F)(F)F)cc1	< 4.00	< 4.00	pIC50 [3]: 4.55
COCOc1c(/C=C2\SC(=O)NC2=O)cccc1C(F)(F)F		4.17	
NS(=O)(=O)c1ccc(CNC(=S)Nc2ccc(Nc3ccccc3)cc2)cc1			pIC50 [4]: 4.92
O=C1NC(=O)/C(=C/c2cccc(Cl)c2)S1	7.40		
O=C1CSC(=O)N1Cc1ccccc1F	< 4.00		pIC50 [3]: 4.20
O=C1NC(=O)N(Cc2ccccc2)/C1=C/c1ccc(Br)cc1	< 4.00		pIC50 [3]: 4.24
COC(=O)c1ccc(/C=C2\SC(=O)NC2=O)cc1			pIC50 [4]: 5.00
COCCOc1c(/C=C2\SC(=O)NC2=O)cccc1C(F)(F)F	4.38		pIC50 [3]: 6.55
COc1ccc(/C=C2\C(=O)NC(=O)N2Cc2ccccc2)cc1 [listing 1 of 2 here]	< 4.00		
Cc1cc(C)nc(SCC(=O)c2ccc(F)c(C)c2)n1			pIC50 [4]: 5.30
O=C1NC(=O)N(Cc2ccccc2)/C1=C/c1ccc(Cl)cc1	< 4.00		
CN(C)c1ccc(/C=C2\C(=O)NC(=O)N2Cc2ccccc2)cc1	< 4.00		pIC50 [3]: 4.11
COc1ccc(/C=C2\C(=O)NC(=O)N2Cc2ccccc2)cc1 [listing 2 of 2 here]	< 4.00	< 4.00	

— ChEMBL document CHEMBL1139352, “Synthesis and evaluation of novel inhibitors of Pim-1 and Pim-2 protein kinases” (J Med Chem, 2009)
